Measured values as given in ChEMBL document CHEMBL5053510, “Discovery of AS-1763: A Potent, Selective, Noncovalent, and Orally Available Inhibitor of Bruton's Tyrosine Kinase” (J Med Chem, 2021).

Molecular target: Tyrosine-protein kinase BTK (Homo sapiens, UniProt Q06187)
Test: Inhibition of human BTK-A using phosphorylated substrate in presence of ATP by microplate reader assay

Tyrosine-protein kinase BTK, sequence (Q06187 whole entry): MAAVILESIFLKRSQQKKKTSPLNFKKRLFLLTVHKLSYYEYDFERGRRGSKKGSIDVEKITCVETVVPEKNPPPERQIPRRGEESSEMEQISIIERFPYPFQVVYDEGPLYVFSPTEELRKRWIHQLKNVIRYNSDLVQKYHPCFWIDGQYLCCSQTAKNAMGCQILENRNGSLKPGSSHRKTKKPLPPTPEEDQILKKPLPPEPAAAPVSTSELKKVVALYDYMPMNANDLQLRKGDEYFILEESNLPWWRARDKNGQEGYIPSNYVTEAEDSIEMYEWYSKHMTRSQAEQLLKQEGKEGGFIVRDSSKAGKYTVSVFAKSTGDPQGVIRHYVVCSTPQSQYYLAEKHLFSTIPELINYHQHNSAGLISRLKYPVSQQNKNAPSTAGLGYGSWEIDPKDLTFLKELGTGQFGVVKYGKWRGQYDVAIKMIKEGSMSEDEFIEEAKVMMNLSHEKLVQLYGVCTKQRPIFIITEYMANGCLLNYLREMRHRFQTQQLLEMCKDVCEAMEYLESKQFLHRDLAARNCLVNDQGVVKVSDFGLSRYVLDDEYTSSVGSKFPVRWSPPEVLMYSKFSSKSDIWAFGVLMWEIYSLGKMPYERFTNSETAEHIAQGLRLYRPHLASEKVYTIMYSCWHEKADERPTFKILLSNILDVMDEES

Row | SMILES | IC50
1 | Nc1nc(-c2cccc(-n3ccc4cc(C5CC5)cc(F)c4c3=O)c2CO)c2cc(C3=CCNCC3)[nH]c2n1 | 0.65 nM
2 | CN1CCN(C(=O)N2CC=C(c3cc4c(-c5cccc(-n6ccc7cc(C8CC8)cc(F)c7c6=O)c5CO)nc(N)nc4[nH]3)CC2)CC1 | 0.65 nM
3 | CC(=O)N1CC=C(c2cc3c(-c4cccc(-n5ccc6cc(C7CC7)cc(F)c6c5=O)c4CO)nc(N)nc3[nH]2)CC1 | 0.71 nM
4 | Nc1nc(-c2cccc(-n3ccc4cc(C5CC5)cc(F)c4c3=O)c2CO)c2cc(-c3ccccc3)[nH]c2n1 | 14 nM
5 | Cc1cc2c(-c3cccc(-n4ccc5cc(C6CC6)cc(F)c5c4=O)c3CO)nc(N)nc2[nH]1 | 49 nM
6 | Nc1nc(-c2cccc(-n3ccc4cc(C5CC5)cc(F)c4c3=O)c2CO)c2cc(C3=CCCCC3)[nH]c2n1 | 2.6 nM
